From ChEMBL document CHEMBL3885861, “Open TG-GATES”

Species on record: Rattus norvegicus
Assay: Open TG-GATES - Regimen: Single
Type: toxicity, organism-based, Sprague-Dawley
Set-up: regimen Single, gender Male, age 6 weeks
Settings: in vivo, po, 200 mg/kg, route gavage, dose level Middle; for APTT / Bas / Eos / Fbg / Hb / Ht / Lym / MCH / MCHC / MCV / Mono / Neu / PT / Plat / RBC / Ret / WBC: tissue Blood; for KIDNEY_L / KIDNEY_R / KIDNEY_TOTAL: tissue Kidney; for LIVER: tissue Liver; for A/G / ALP / ALT / AST / BUN / CRE / Ca / Cl / DBIL / GLC / IP / K / LDH / Na / PL / RALB / TBIL / TC / TG / TP / gamma-GTP: tissue Plasma

Question: For CCOC(=O)[C@H](CCc1ccccc1)N[C@@H](C)C(=O)N1CCC[C@H]1C(=O)O, which TERMINAL_BW (3 h) is on record?
Answer: 221.1 g

Question: And the APTT (3 h)?
Answer: 15.6 s

Question: What about the Bas (3 h) of the same molecule?
Answer: 0%

Question: And the Eos (3 h)?
Answer: 1%

Question: What about the Fbg (3 h) of the same molecule?
Answer: 207 mg/dL

Question: And the Hb (3 h)?
Answer: 13.1 g/dL

Question: And the Ht (3 h)?
Answer: 39.7%

Question: What about the Lym (3 h) of the same molecule?
Answer: 81.6%

Question: And the MCH (3 h)?
Answer: 22.2 pg

Question: And the MCHC (3 h)?
Answer: 33.1%

Question: What about the MCV (3 h) of the same molecule?
Answer: 67.1 fL

Question: And the Mono (3 h)?
Answer: 5%

Question: And the Neu (3 h)?
Answer: 12.4%

Question: And the PT (3 h)?
Answer: 12 s

Question: And the Plat (3 h)?
Answer: 117.9 x10_4/uL

Question: And the RBC (3 h)?
Answer: 591.2 x10_4/ul

Question: And the Ret (3 h)?
Answer: 9.1%

Question: And the WBC (3 h)?
Answer: 93.8 x10_2/uL

Question: What about the KIDNEY_L (3 h) of the same molecule?
Answer: 1 g

Question: And the KIDNEY_R (3 h)?
Answer: 1 g

Question: And the KIDNEY_TOTAL (3 h)?
Answer: 2.1 g

Question: What about the LIVER (3 h) of the same molecule?
Answer: 10.4 g

Question: What about the A/G (3 h) of the same molecule?
Answer: 1.8

Question: What about the ALP (3 h) of the same molecule?
Answer: 823.4 IU/L

Question: What about the ALT (3 h) of the same molecule?
Answer: 45.2 IU/L

Question: And the AST (3 h)?
Answer: 67 IU/L

Question: What about the BUN (3 h) of the same molecule?
Answer: 21.2 mg/dL

Question: What about the CRE (3 h) of the same molecule?
Answer: 0.5 mg/dL

Question: What about the Ca (3 h) of the same molecule?
Answer: 10.8 mg/dL

Question: What about the Cl (3 h) of the same molecule?
Answer: 107.2 meq/L

Question: What about the DBIL (3 h) of the same molecule?
Answer: 0.01 mg/dL

Question: What about the GLC (3 h) of the same molecule?
Answer: 205.4 mg/dL

Question: And the IP (3 h)?
Answer: 9.1 mg/dL

Question: What about the K (3 h) of the same molecule?
Answer: 5.5 meq/L

Question: What about the LDH (3 h) of the same molecule?
Answer: 101.8 IU/L

Question: And the Na (3 h)?
Answer: 139 meq/L

Question: And the PL (3 h)?
Answer: 129.8 mg/dL

Question: What about the RALB (3 h) of the same molecule?
Answer: 3.4 g/dL

Question: And the TBIL (3 h)?
Answer: 0.3 mg/dL

Question: And the TC (3 h)?
Answer: 72.2 mg/dL

Question: What about the TG (3 h) of the same molecule?
Answer: 82 mg/dL

Question: What about the TP (3 h) of the same molecule?
Answer: 5.3 g/dL

Question: And the gamma-GTP (3 h)?
Answer: 1.6 IU/L

Question: And the TERMINAL_BW (6 h)?
Answer: 215 g

Question: What about the APTT (6 h) of the same molecule?
Answer: 16.6 s

Question: And the Bas (6 h)?
Answer: 0%

Question: What about the Eos (6 h) of the same molecule?
Answer: 1%

Question: What about the Fbg (6 h) of the same molecule?
Answer: 208.6 mg/dL

Question: And the Hb (6 h)?
Answer: 13 g/dL

Question: What about the Ht (6 h) of the same molecule?
Answer: 39.7%

Question: And the Lym (6 h)?
Answer: 75%

Question: What about the MCH (6 h) of the same molecule?
Answer: 21.2 pg

Question: What about the MCHC (6 h) of the same molecule?
Answer: 32.7%

Question: And the MCV (6 h)?
Answer: 64.7 fL

Question: What about the Mono (6 h) of the same molecule?
Answer: 9.6%

Question: What about the Neu (6 h) of the same molecule?
Answer: 14.4%

Question: And the PT (6 h)?
Answer: 11.9 s

Question: What about the Plat (6 h) of the same molecule?
Answer: 109.6 x10_4/uL

Question: And the RBC (6 h)?
Answer: 615.4 x10_4/ul

Question: And the Ret (6 h)?
Answer: 8.9%

Question: What about the WBC (6 h) of the same molecule?
Answer: 113.1 x10_2/uL

Question: What about the KIDNEY_L (6 h) of the same molecule?
Answer: 1 g

Question: And the KIDNEY_R (6 h)?
Answer: 1 g

Question: And the KIDNEY_TOTAL (6 h)?
Answer: 1.9 g

Question: And the LIVER (6 h)?
Answer: 9.8 g

Question: And the A/G (6 h)?
Answer: 2.1

Question: What about the ALP (6 h) of the same molecule?
Answer: 770.4 IU/L

Question: And the ALT (6 h)?
Answer: 43.2 IU/L

Question: And the AST (6 h)?
Answer: 63.2 IU/L

Question: And the BUN (6 h)?
Answer: 22 mg/dL

Question: What about the CRE (6 h) of the same molecule?
Answer: 0.5 mg/dL

Question: What about the Ca (6 h) of the same molecule?
Answer: 11 mg/dL

Question: And the Cl (6 h)?
Answer: 105.6 meq/L

Question: And the DBIL (6 h)?
Answer: 0.022 mg/dL

Question: And the GLC (6 h)?
Answer: 195.4 mg/dL

Question: What about the IP (6 h) of the same molecule?
Answer: 10.4 mg/dL

Question: What about the K (6 h) of the same molecule?
Answer: 5.1 meq/L

Question: What about the LDH (6 h) of the same molecule?
Answer: 91.6 IU/L

Question: And the Na (6 h)?
Answer: 139 meq/L

Question: And the PL (6 h)?
Answer: 144.6 mg/dL

Question: And the RALB (6 h)?
Answer: 3.6 g/dL

Question: And the TBIL (6 h)?
Answer: 0.5 mg/dL

Question: And the TC (6 h)?
Answer: 79.2 mg/dL

Question: And the TG (6 h)?
Answer: 53.8 mg/dL

Question: And the TP (6 h)?
Answer: 5.3 g/dL

Question: And the gamma-GTP (6 h)?
Answer: 1.2 IU/L

Question: And the TERMINAL_BW (9 h)?
Answer: 214.6 g

Question: What about the APTT (9 h) of the same molecule?
Answer: 15.7 s

Question: What about the Bas (9 h) of the same molecule?
Answer: 0%

Question: And the Eos (9 h)?
Answer: 1.2%

Question: And the Fbg (9 h)?
Answer: 207.2 mg/dL

Question: And the Hb (9 h)?
Answer: 12.8 g/dL

Question: What about the Ht (9 h) of the same molecule?
Answer: 39.2%

Question: And the Lym (9 h)?
Answer: 71.6%

Question: And the MCH (9 h)?
Answer: 21.4 pg

Question: What about the MCHC (9 h) of the same molecule?
Answer: 32.6%

Question: And the MCV (9 h)?
Answer: 65.4 fL

Question: And the Mono (9 h)?
Answer: 10.2%

Question: And the Neu (9 h)?
Answer: 17%

Question: And the PT (9 h)?
Answer: 12.1 s

Question: What about the Plat (9 h) of the same molecule?
Answer: 108.6 x10_4/uL

Question: What about the RBC (9 h) of the same molecule?
Answer: 599.4 x10_4/ul

Question: What about the Ret (9 h) of the same molecule?
Answer: 8.8%

Question: And the WBC (9 h)?
Answer: 88.4 x10_2/uL

Question: And the KIDNEY_L (9 h)?
Answer: 1.1 g

Question: What about the KIDNEY_R (9 h) of the same molecule?
Answer: 1 g

Question: And the KIDNEY_TOTAL (9 h)?
Answer: 2.1 g

Question: What about the LIVER (9 h) of the same molecule?
Answer: 8.8 g

Question: And the A/G (9 h)?
Answer: 2.1

Question: What about the ALP (9 h) of the same molecule?
Answer: 931.6 IU/L

Question: What about the ALT (9 h) of the same molecule?
Answer: 36.2 IU/L

Question: What about the AST (9 h) of the same molecule?
Answer: 65.8 IU/L

Question: And the BUN (9 h)?
Answer: 25.8 mg/dL

Question: What about the CRE (9 h) of the same molecule?
Answer: 0.4 mg/dL

Question: What about the Ca (9 h) of the same molecule?
Answer: 10.8 mg/dL

Question: And the Cl (9 h)?
Answer: 108 meq/L

Question: And the DBIL (9 h)?
Answer: 0.03 mg/dL

Question: And the GLC (9 h)?
Answer: 189.4 mg/dL

Question: And the IP (9 h)?
Answer: 10.8 mg/dL

Question: And the K (9 h)?
Answer: 5.2 meq/L

Question: What about the LDH (9 h) of the same molecule?
Answer: 83.8 IU/L

Question: What about the Na (9 h) of the same molecule?
Answer: 139.4 meq/L

Question: And the PL (9 h)?
Answer: 120.4 mg/dL

Question: And the RALB (9 h)?
Answer: 3.5 g/dL

Question: What about the TBIL (9 h) of the same molecule?
Answer: 0.4 mg/dL

Question: What about the TC (9 h) of the same molecule?
Answer: 69.4 mg/dL

Question: And the TG (9 h)?
Answer: 32.2 mg/dL

Question: And the TP (9 h)?
Answer: 5.2 g/dL

Question: What about the gamma-GTP (9 h) of the same molecule?
Answer: 2.2 IU/L

Question: What about the TERMINAL_BW (24 h) of the same molecule?
Answer: 230.9 g

Question: And the APTT (24 h)?
Answer: 15.8 s

Question: And the Bas (24 h)?
Answer: 0%

Question: And the Eos (24 h)?
Answer: 1.8%

Question: What about the Fbg (24 h) of the same molecule?
Answer: 222.8 mg/dL

Question: And the Hb (24 h)?
Answer: 13 g/dL

Question: What about the Ht (24 h) of the same molecule?
Answer: 39.2%

Question: And the Lym (24 h)?
Answer: 71.2%

Question: What about the MCH (24 h) of the same molecule?
Answer: 21.4 pg

Question: What about the MCHC (24 h) of the same molecule?
Answer: 33.1%

Question: What about the MCV (24 h) of the same molecule?
Answer: 64.8 fL

Question: What about the Mono (24 h) of the same molecule?
Answer: 8.8%

Question: What about the Neu (24 h) of the same molecule?
Answer: 18%

Question: And the PT (24 h)?
Answer: 10.8 s

Question: What about the Plat (24 h) of the same molecule?
Answer: 115.7 x10_4/uL

Question: What about the RBC (24 h) of the same molecule?
Answer: 606 x10_4/ul

Question: And the Ret (24 h)?
Answer: 8.6%

Question: What about the WBC (24 h) of the same molecule?
Answer: 90.5 x10_2/uL

Question: And the KIDNEY_L (24 h)?
Answer: 1.1 g

Question: What about the KIDNEY_R (24 h) of the same molecule?
Answer: 1 g

Question: What about the KIDNEY_TOTAL (24 h) of the same molecule?
Answer: 2.1 g

Question: What about the LIVER (24 h) of the same molecule?
Answer: 11.5 g

Question: And the A/G (24 h)?
Answer: 2

Question: And the ALP (24 h)?
Answer: 915.2 IU/L

Question: And the ALT (24 h)?
Answer: 38.6 IU/L

Question: And the AST (24 h)?
Answer: 67.6 IU/L

Question: What about the BUN (24 h) of the same molecule?
Answer: 17.6 mg/dL

Question: And the CRE (24 h)?
Answer: 0.5 mg/dL

Question: What about the Ca (24 h) of the same molecule?
Answer: 11 mg/dL

Question: What about the Cl (24 h) of the same molecule?
Answer: 103.2 meq/L

Question: And the DBIL (24 h)?
Answer: 0 mg/dL

Question: What about the GLC (24 h) of the same molecule?
Answer: 198 mg/dL

Question: What about the IP (24 h) of the same molecule?
Answer: 8.4 mg/dL

Question: And the K (24 h)?
Answer: 5 meq/L

Question: And the LDH (24 h)?
Answer: 106.4 IU/L

Question: What about the Na (24 h) of the same molecule?
Answer: 137.8 meq/L

Question: What about the PL (24 h) of the same molecule?
Answer: 167.4 mg/dL

Question: And the RALB (24 h)?
Answer: 3.8 g/dL

Question: What about the TBIL (24 h) of the same molecule?
Answer: 0.5 mg/dL

Question: What about the TC (24 h) of the same molecule?
Answer: 91 mg/dL

Question: And the TG (24 h)?
Answer: 89 mg/dL

Question: And the TP (24 h)?
Answer: 5.7 g/dL

Question: What about the gamma-GTP (24 h) of the same molecule?
Answer: 1.8 IU/L
